For series [1], the system named is PBMC (peripheral blood mononuclear cells). Kind of series: two-way mixed lymphocyte reaction (MLR), proliferative response of PBMC to allogeneic stimulation. It counts as cell-based, human. To be noted: for IC50: Homo sapiens, PBMC, mixed lymphocyte reaction; for immune modulating activity compared with PTX: two-way MLR, FIG. 1. The source says: Various in vitro assays can be used to measure effects of the inventive compounds to module immune activity and have antitumor activity using a variety of cellular types. For example, a mixed lymphocyte reaction (MLR) provides a valuable screening tool to determine biological activity of each inventive compound. In the MLR, PBMCs (peripheral blood mononuclear cells) are obtained by drawing whole blood from healthy volunteers in a heparinized container and diluted with an equal volume of hanks balanced salt solution (HBSS). This mixture is layered on a sucrose density gradient, such as a Ficoll-Hypaque® gradient (specific gravity 1.08), and centrifuged at 1000×g for 25 minutes at room temperature or cooler. PBMC are obtained from a band at a plasma-Ficoll interface, separated and washed at least twice in a saline solution, such as HBSS. Contaminating red cells are lysed, such as by ACK lysis for 10 min at 37° C., and the PBMCs are washed twice in HBSS. The pellet of purified PBMCs is resuspended in complete medium, such as RPMI 1640 plus 20% human inactivated serum. Proliferative response of PBMC to allogeneic stimulation is determined in a two-way MLR performed in a 96-well microtiter plate. Briefly, approximately 10^5 test purified PBMC cells in […] complete medium are co-cultured with approximately 10^5 autologous (control culture) or allogeneic (stimulated culture) PBMC cells, wherein the allogeneic cells are from HLA disparate individuals. Varying doses of compounds (drug) are added at the time of addition of cells to the microtiter plate. The cultures are incubated for 6 days at 37° C. in a 5% CO2 atmosphere. At the conclusion of the incubation tritiated thymidine is added (for example, 1 µCi/well of 40 to 60 Ci/mmole) and proliferation determined by liquid scintillation counting.
This example illustrates the effect of compounds nos. 1551 and 1559 as an immune modulator. […] 1551 and 1559 (see above for chemical names and structures).

The next series concerns IL-12 signaling. The series is described as follows: IL-12 dependent in vitro T-helper cell (Th1) differentiation assay. To be noted: anti-CD3 stimulated splenic T cells, 5 U/ml IL-12, compound present during T cell activation. It counts as cell-based. On the procedure: This example illustrates the assay used to determine the effect of compounds of this invention in suppressing Th1 differentiation in vitro by blocking IL-12 signaling. Compounds are tested in an IL-12 dependent in vitro T-helper cell differentiation assay as described in LeGross et al., J. Exp. Med., 172:921-929 (1990). Recombinant IL-12 is used to induce Th1 differentiation. Splenic T cells are purified utilizing the antibodies RA3-3A1/6.1 (anti-B220), J11d and MAR8.5 (anti-rat kappa chain) to deplete the B cells via complement mediated toxicity following the procedure set forth in Klaus et al., J. Immunol., 149:1867-1875 (1992). Splenic T cells are stimulated at 5×10^5/ml with insoluble anti-CD3 alone (145-2C11, Pharmingen, San Diego, Calif.), or anti-CD3 and 5 U/ml IL-12, with and without each inventive compound. After seven days, equal numbers of viable cells are restimulated for 24 hours with anti-CD3 without the inventive compounds, and the supernatants are collected and assayed for IFN-γ production. IFN-γ and IL-4 levels are measured by Intertest kits from Genzyme specific for IFN-γ and IL-4.
Th1 differentiation is induced by culturing anti-CD3 stimulated T cells in the presence of exogenous IL-12. […] Neither the viability or recovery of T cells after one week of culture in the presence of the compound.

The next series has as its system human stromal cells. The series is described as follows: PDGF-induced proliferation of human stromal cells. The series is classed as cell-based. To be noted: 50 ng/ml PDGF-BB, drug added one hour before, tritiated thymidine, FIG. 2. On the procedure: (§1) Another assay for measuring activity of the inventive compounds involves determining PDGF, FGF or VEGF proliferative response using either mouse NIH-3T3 (Balb) cells or human-derived stromal cells. Human stromal cells are plated (e g., about 2000 cells per well) in defined media (e.g., 69% McCoy's, 12.5% fetal calf serum, 12.5% horse serum, 1% antibiotics, 1% glutamine, 1% vitamin supplement, 0.8% essential amino acids, 1% sodium pyruvate, 1% sodium bicarbonate, 0.4% non-essential amino acids and 0.36% hydrocortisone). Two to three days later, the stromal cells are starved in serum-free media. Twenty four hours later, the cells are treated with a stimulating agent, such as PDGF-AA, PDGF-BB or basic FGF (fibroblast growth factor) with or without IL-1 or TNF, and tritiated thymidine. Cell proliferation is determined by liquid scintillation counting.
This example illustrates a comparison of compounds nos. 1551 and 1559 on PDGF-induced (platelet derived growth factor) proliferation of human stromal cells. Human stromal cells were starved in serum-free media for 24 hours and then stimulated with 50 ng/ml of PDGF-BB. The drugs were added at various indicated concentrations one hour prior to PDGF stimulation. Tritiated thymidine was added at the time of PDGF stimulation. The cells were harvested and counted by liquid scintillation 24 hours after stimulation with PDGF. […]

Another series concerns murine thymocytes. Kind of series: murine thymocyte proliferation co-stimulated by ConA and IL-2. To be noted: Mus musculus, ConA 0.25 mg/ml and IL-2 15 U/ml, drug added two hours before, 4 days. The series is classed as cell-based, Balb/C mice. The source says: This example illustrates dose response curves used to generate 50% inhibition concentration (IC50) of inventive compounds nos. 1551 and 1564 for murine thymocyte proliferation, co-stimulated by Concanavalin A (ConA) and interleukin-2 alpha (IL-2). ConA, used to activate CD3, along with IL-2 co-stimulation, induces T-cell proliferation and differentiation. Thymuses, obtained from normal, female Balb/C mice, were dissociated and plated into 96-well plates at a density of 2×10^5 cells/well. ConA (0.25 mg/ml) and IL-2 (15 U/ml) were added to the wells. The cells were incubated for 4 days at 37° C. On day 4, the cells were pulsed with tritiated thymidine and incubated for an additional 4 hours. The amount of tritiated thymidine dye incorporated by the harvested cells was determined in a liquid scintillation counter. Drug doses (shown in FIGS. 7A and 7B) were added two hours prior to ConA and IL-2 activation. Background counts were less than 200 cpm. […] 1551 and 1564 are 28 and 49 μM.

The subject of another series is VCAM. The series is described as follows: TNF-induced cell surface expression of VCAM in HUVEC, flow cytometry. It counts as cell-based, human. To be noted: for % of cells in gate (VCAM expression): 20 ng/ml TNF for 20 hours, 1559 at 0.25 mM one hour prior to TNF, TNF alone 34.5%, non-induced 0.4%. On the procedure:
This example illustrates the effect of compound no. 1559 on inhibiting cell surface expression of VCAM in human umbilical vein endothelial cells (HUVEC). The HUVEC cells were stimulated with 20 ng/ml TNF- for 20 hours and then stained for immunofluorescence using a monoclonal antibody recognizing VCAM, followed by a goat anti-mouse antibody conjugated to phycoerythrin. The cells were analyzed for antibody binding using flow cytometry. […] The top left histogram is non-TNF induced expression of VCAM (% of cells in gate A is 0.4%). […] 1559 (0.25 mM), one hour prior to TNF addition (% of cells in gate C is 24%).
This example illustrates the effect of compound no. 1559 on inhibiting cell surface expression of VCAM in HUVEC cells. The cells were stimulated with TNF- (20 ng/ml) for 20 hours and then stained for immunofluorescence using a monoclonal antibody recognizing VCAM, followed by a goat anti-mouse antibody conjugated to phycoerythrin. The cells were analyzed for antibody binding using flow cytometry. […] The mean fluorescence levels were decreased by compound no. 1559 treatment (1.7 fold decrease) when compared with control levels (TNF treatment, no drug).

For the next series, the system named is NIH-3T3 cells. Kind of series: cytotoxicity on NIH-3T3 cells (BCECF viability stain). The series is classed as cell-based, mouse. To be noted: various concentrations, FIG. 4. On the procedure:
(§2) This example provides data from an experiment measuring compound no. 1559 cytotoxicity on NIH-3T3 cells and their Ras transformed counterpart, NIH-3T3 Ras cells. The cells were treated with various concentrations of compound no. 1559 and later stained for cell viability with a fluorescence stain (BCECF) and analyzed using a Milipore fluorescence plate reader.

Another series has as its system NIH-3T3 Ras cells. The series is described as follows: cytotoxicity on NIH-3T3 Ras cells (BCECF viability stain). The series is classed as cell-based, mouse. To be noted: various concentrations, FIG. 4. On the procedure: as §2
Series [2] has as its system LD-2 cells, a human malignant melanoma cell line. The series is described as follows: cytotoxicity on LD-2 cells (BCECF viability stain). The series is classed as cell-based. To be noted: various concentrations, FIG. 3. On the procedure:
This example provide data from an experiment measuring compound no. 1559 cytotoxicity on LD-2 cells, a human malignant melanoma cell line. The cells were treated with various concentrations of compound no. 1559 and later stained for cell viability with a fluorescence stain (BCECF) and analyzed using a Milipore fluorescence plate reader.

For the next series, the system named is Balb/3T3 cells. Kind of series: PDGF-BB-induced proliferation of Balb/3T3 cells. The series is classed as cell-based, mouse. To be noted: tritiated thymidine, FIGS. 8A and 9A. On the procedure: as §1
Balb/3T3 cells respond vigorously to PDGF stimulation, and are useful in vitro models for further study of PDGF-induced proliferation. Disregulated PDGF-proliferative response has been linked to a variety of diseases, including, e.g., restenosis, atherosclerosis, fibrosis, and tumor cell angiogenesis. Cells were plated in low serum-containing medium for 24 hours prior to stimulation with various concentrations (as reported in FIGS. 8A and 9A) of inventive compounds nos.2556 and 3504 (FIGS. 8A and 9A, respectively). […]

As a reminder, the IC50 is the midpoint of a concentration-inhibition curve. With `CC(O)CCCCCCn1c(=O)c2c(ncn2C)n(C)c1=O` (centres unmarked) [Compound 1536, 1-(7-Hydroxyoctyl)-3,7-dimethylxanthine], in series [1], the IC50 was determined as 250 µM. Moreover, the “inhibition of Th1 differentiation enhanced by exogenous IL-12” value with IL-12 signaling was “inhibited Th1 differentiation”.
With `Cn1cnc2c1c(=O)n(CCCCCCC(O)CO)c(=O)n2C` (centres unmarked) [Compound 1538, 1-(7,8-Dihydroxyoctyl)-3,7-dimethylxanthine], in series [1], the IC50 is greater than 500 µM.
`Cn1cnc2c1c(=O)n(CC(O)CO)c(=O)n2C` (centres unmarked) [Compound 1540, 1-(2,3-Dihydroxypropyl)-3,7-dimethylxanthine] displayed an IC50 in [1] greater than 500 µM.
The compound `CC(O)CCCn1c(=O)c2c(ncn2C)n(C)c1=O` (centres unmarked) [Compound 1542, 1-(4-Hydroxypentyl)-3,7-dimethylxanthine] gave an IC50 in [1] greater than 500 µM.
`Cn1cnc2c1c(=O)n(CCCCCCCO)c(=O)n2C` [Compound 1545, 1-(7-Hydroxyheptyl)-3,7-dimethylxanthine] displayed an IC50 in series [1] of 300 µM.
On to `Cn1cnc2c1c(=O)n(CCCCCCCCO)c(=O)n2C` [Compound 1546, 1-(8-Hydroxyoctyl)-3,7-dimethylxanthine], for which, in [1], the IC50 amounted to 320 µM.
For the compound `CC(O)CCCCCCCn1c(=O)c2c(ncn2C)n(C)c1=O` (centres unmarked) [Compound 1551, 1-(8-Hydroxynonyl)-3,7-dimethylxanthine], in the series on human stromal cells, the “inhibition of PDGF-induced stimulation (proliferation)” value was “inhibited PDGF-induced stimulation”. Further, the results for the IC50 (in [1]; in the series on murine thymocytes) were 120 µM and 28 µM, respectively. For the same compound, in series [1], the “immune modulating activity compared with PTX” value was “more effective and more potent than PTX”.
As to `Cn1cnc2c1c(=O)n(CCCCCCO)c(=O)n2C` [Compound 1556, 1-(6-Hydroxyhexyl)-3,7-dimethylxanthine], in series [1], the IC50 was greater than 500 µM.
Take `Cn1cnc2c1c(=O)n(CCCCCCCCCCO)c(=O)n2C` [Compound 1559, 1-(10-Hydroxydecyl)-3,7-dimethylxanthine]: the “inhibition of PDGF-induced stimulation (proliferation)” value with human stromal cells is “inhibited PDGF-induced stimulation”. In addition, the IC50 in [1] came to 150 µM. In series [1], the “immune modulating activity compared with PTX” value is “more effective and more potent than PTX”. The “% of cells in gate (VCAM expression)” value with VCAM came out at 24%. Also, the “decrease of mean fluorescence levels (VCAM) compared with control (TNF treatment, no drug)” value in the series with VCAM (TNF 20 ng/ml for 20 hours, FIG. 6) was found to be 1.7 fold decrease. Also, the cytotoxicity result (in the series with NIH-3T3 cells; with NIH-3T3 Ras cells; in [2]) was “cytotoxic at higher concentrations” each time.
`Cn1cnc2c1c(=O)n(CCCCCCCC(O)CO)c(=O)n2C` (centres unmarked) [Compound 1561, 1-(8,9-Dihydroxynonyl)-3,7-dimethylxanthine]: the IC50 in series [1] is 185 µM.
Regarding `Cn1cnc2c1c(=O)n(CCCCCCCCC(O)CO)c(=O)n2C` (centres unmarked) [Compound 1564, 1-(9,10-Dihydroxydecyl)-3,7-dimethylxanthine], the IC50 in series [1] turned out to be 210 µM; with murine thymocytes, 49 µM.
Regarding `Cn1cnc2c1c(=O)n(CCCCCCCCCCCC(O)CO)c(=O)n2C` (centres unmarked) [Compound 2556], in the series on Balb/3T3 cells, the “inhibition of PDGF-induced proliferation” value is “inhibited PDGF-induced proliferation”.
Still for that read-out and setting: as for `CC(O)CCCCCCCCCCCCn1c(=O)c2c(ncn2C)n(C)c1=O` (centres unmarked) [Compound 3504, 1-(13-Hydroxytetradecyl)-3,7-dimethylxanthine], the entry is “inhibited PDGF-induced proliferation”.
On to `CC(=O)CCCCn1c(=O)c2c(ncn2C)n(C)c1=O` [PTX, 1-(5-oxohexyl)-3,7-dimethylxanthine, reference compound], for which the “% of cells in gate (VCAM expression)” value in the series on VCAM stood at 36.8%.

Source of the values: patent US6693105B1, “Hydroxyl-containing compounds” (Cell Therapeutics, Inc., priority 1992, dated 2004).
